Measurements taken from paper PMC3170524 (Physiological research / Academia Scientiarum Bohemoslovaca, 2010).
Changes are numbered by the printed parent chain.

Legend:
Assay in all cases: whole-cell patch clamp, peak current dose-response
Assay type in all cases: cell-based
rat P2X4R [1] = target: T1, rat P2X4R (Rattus norvegicus, UniProt P51577, C126T/C149T)
T1 sequence (P51577 1-388 C126T/C149T): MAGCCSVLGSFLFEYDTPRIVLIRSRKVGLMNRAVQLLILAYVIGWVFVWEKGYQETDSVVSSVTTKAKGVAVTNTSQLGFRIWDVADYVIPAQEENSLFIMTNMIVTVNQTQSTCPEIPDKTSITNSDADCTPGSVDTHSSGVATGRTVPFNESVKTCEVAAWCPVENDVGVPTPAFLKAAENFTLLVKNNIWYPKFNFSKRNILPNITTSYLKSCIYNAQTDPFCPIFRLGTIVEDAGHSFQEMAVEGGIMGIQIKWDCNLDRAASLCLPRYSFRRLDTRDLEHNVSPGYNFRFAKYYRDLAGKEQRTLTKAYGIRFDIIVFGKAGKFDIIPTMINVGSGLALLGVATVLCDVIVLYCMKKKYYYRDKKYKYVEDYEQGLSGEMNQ

rat P2X4R [2] = target: T2, rat P2X4R (Rattus norvegicus, UniProt P51577, C165A)
T2 sequence (P51577 1-388 C165A): T1 sequence (P51577 1-388 C126T/C149T) with T126C, T149C, C165A

rat P2X4R [3] = target: T3, rat P2X4R (Rattus norvegicus, UniProt P51577, C217R)
T3 sequence (P51577 1-388 C217R): T1 sequence (P51577 1-388 C126T/C149T) with T126C, T149C, C217R

rat P2X4R [4] = target: T4, rat P2X4R (Rattus norvegicus, UniProt P51577, C165T)
T4 sequence (P51577 1-388 C165T): T1 sequence (P51577 1-388 C126T/C149T) with T126C, T149C, C165T

EC50 (rat P2X4R [1]): 65 ± 24 µM | EC50 (rat P2X4R [2]): 42 ± 8.9 µM | EC50 (rat P2X4R [3]): 9.2 ± 2.3 µM | EC50 (rat P2X4R [4]): 45 ± 3.8 µM
Structure (SMILES): Nc1ncnc2c1ncn2[C@@H]1O[C@H](COP(=O)(O)OP(=O)(O)OP(=O)(O)O)[C@@H](O)[C@H]1O [ATP]
